Here are results for three compounds from patent publication US20240100120A1 (priority 2019, published 2024).

For experiment [1], the system named is fentanyl OIRD (integrated phrenic nerve activity, iPNA). Particulars: rat, in vivo, iv.
The test system of experiment [2] is opioid self-administration. The conditions noted are these: Kovacs G L, et al. Life Sci. 1985; cited from earlier work.
Experiment [3] deals with integrated phrenic nerve activity (iPNA); opioid OIRD. Particulars: rat, in vivo.
Experiment [4] relates to side effects (e.g., respiratory depression) of opioid receptor agonists. Particulars: oxytocin 0.32 mg/kg subcutaneously; heroin 0.1-1.0 mg/kg; rhesus monkeys.
For another experiment, the system named is hypopnea and apnea. The conditions noted are these: human sleep apnea patients; cited from earlier work.

Where a SMILES comes first, the peptide text is derived from it. Bridges are numbered along the chain shown (N, C = ends). [ ]: non-standard residue; d: D form. Orn = NCCC[C@H](N)C(=O)O; Mpa = O=C(O)CCS

As to `CCOc1ccc(C[C@H]2NC(=O)CCSSC[C@@H](C(=O)N3CCC[C@H]3C(=O)N[C@@H](CCCN)C(=O)NCC(N)=O)NC(=O)[C@H](CC(N)=O)NC(=O)[C@H]([C@@H](C)O)NC(=O)[C@H]([C@@H](C)CC)NC2=O)cc1` [atosiban] ([Mpa][dY](Et)ITNCP[Orn]G-NH2; disulfide 1-6), the “effect of OXTN receptor antagonism on OXTN reversal of FENT OIRD” value in experiment [1] is on record as “prevents OXTN (5 μg/kg) reversal of FENT OIRD”.
On to `CC[C@H](C)[C@@H]1NC(=O)[C@H](Cc2ccc(O)cc2)NC(=O)[C@@H](N)CSSC[C@@H](C(=O)N2CCC[C@H]2C(=O)N[C@@H](CC(C)C)C(=O)NCC(N)=O)NC(=O)[C@H](CC(N)=O)NC(=O)[C@H](CCC(N)=O)NC1=O` [oxytocin], for which, in experiment [2], the opioid self-administration entry was “reduces opioid self-administration”. Moreover, the “reduction of OIRD by OXT delivered into the PVN” value in experiment [3] is given as “does not reduce OIRD”. The “reversal of side effects (e.g., respiratory depression) of opioid receptor agonists” value in experiment [4] is on record as “reversed”. For the same compound, the “frequency of hypopnea, apnea and hypopnea duration and related arousal” value with hypopnea and apnea is recorded as “improved”.
As to “(Phenylacl-D-Tyr(Et)2,Lys6,Arg8,des-Gly9)-vasopressin trifluoroacetate [V1aRX]”, in experiment [1], the “effect of V1aR antagonism on OXTN reversal of OIRD” value is “significantly enhances reversal” and the “effect of V1aR antagonism on high dose OXTN reversal of OIRD” value is “efficacy is restored”.
